Test results reported in ChEMBL document CHEMBL5523736, “The First Discovery of Marine Polyoxygenated Cembranolides as Potential Agents for the Treatment of Ulcerative Colitis” (J Med Chem, 2024).
Activity calls are given as the source filed them. The rule behind the calls is not given here.

System: RAW264.7
Test: Antiinflammatory activity in mouse RAW264.7 cells assessed as inhibition of LPS-induced NO production at 20 uM incubated for 24 hrs relative to control
Format: functional
Conditions: not given

Row | Compound | inhibition at 20 µM [%]
1 | C=C1C(=O)O[C@]2(C)CC[C@@H]1C[C@H](O)[C@@]1(C)CC[C@H](OC(C)=O)[C@@](C)(CCC2=O)O1 [QUERCIFORMOLIDE A] | 85.1
2 | C=C1C(=O)O[C@]2(C)CC[C@@H]1C[C@H](O)[C@@]1(C)CC[C@H](O1)C(=C)CC[C@H]2OC(C)=O [GRANOSOLIDE A] | 31
3 | C=C1C(=O)O[C@]2(C)CC[C@@H]1C[C@H](O)[C@@]1(C)CC[C@H](O1)[C@](C)(O)CCC2=O | 43
4 | C=C(C(=O)OC)[C@@H]1CC[C@]2(C)O[C@H]2CC[C@](C)(OO)/C=C/C[C@]2(C)O[C@@H]2C1 | 35.4
5 | C=C1C(=O)O[C@]2(C)CC[C@@H]1C[C@@H]1O[C@@]1(C)CC[C@@H]1O[C@]1(C)CC[C@H]2OC(C)=O | 141
6 | C=C(C(=O)OC)[C@@H]1CC[C@@](C)(O)C(=O)CC[C@](C)(O)/C=C/C[C@]2(C)O[C@H]2C1 | 29.1
7 | C=C(C(=O)OC)[C@@H]1CC[C@@](C)(O)[C@@H](OC(C)=O)CC/C(C)=C/CC[C@]2(C)O[C@H]2C1 | -4.67
8 | C=C1C(=O)O[C@]2(C)CC[C@@H]1C[C@H](O)[C@@]1(C)CC[C@H](O1)C(=C)CC[C@H]2O | 39

System: RAW264.7
Test: Antiinflammatory activity in LPS-induced mouse RAW264.7 cells assessed as reduction in iNOS mRNA expression level at 20 uM by qRT-PCR analysis
Format: functional, cell-based
Conditions: not given

Row | Compound | Activity
9 | C=C1C(=O)O[C@]2(C)CC[C@@H]1C[C@@H]1O[C@@]1(C)CC[C@@H]1O[C@]1(C)CC[C@H]2OC(C)=O | Active

System: RAW264.7
Test: Antiinflammatory activity in LPS-induced mouse RAW264.7 cells assessed as reduction in TNF-alpha mRNA expression level at 20 uM by qRT-PCR analysis
Format: functional, cell-based
Conditions: not given

Row | Compound | Activity
10 | C=C1C(=O)O[C@]2(C)CC[C@@H]1C[C@@H]1O[C@@]1(C)CC[C@@H]1O[C@]1(C)CC[C@H]2OC(C)=O | Active

System: RAW264.7
Test: Antiinflammatory activity in LPS-induced mouse RAW264.7 cells assessed as reduction in IL-1beta mRNA expression level at 20 uM by qRT-PCR analysis
Format: functional, cell-based
Conditions: not given

Row | Compound | Activity
11 | C=C1C(=O)O[C@]2(C)CC[C@@H]1C[C@@H]1O[C@@]1(C)CC[C@@H]1O[C@]1(C)CC[C@H]2OC(C)=O | Active

System: not listed separately
Test: Cytotoxicity against mouse RAW264.7 cells assessed as cell viability at 20 uM incubated for 24 hrs by CCK8 assay relative to control
Format: toxicity, cell-based
Conditions: read-out: Activity

Row | Compound | viability at 24 h, 20 µM [%]
12 | C=C1C(=O)O[C@]2(C)CC[C@@H]1C[C@H](O)[C@@]1(C)CC[C@H](OC(C)=O)[C@@](C)(CCC2=O)O1 [QUERCIFORMOLIDE A] | 94.1
13 | C=C1C(=O)O[C@]2(C)CC[C@@H]1C[C@H](O)[C@@]1(C)CC[C@H](O1)C(=C)CC[C@H]2OC(C)=O [GRANOSOLIDE A] | 88.7
14 | C=C1C(=O)O[C@]2(C)CC[C@@H]1C[C@H](O)[C@@]1(C)CC[C@H](O1)[C@](C)(O)CCC2=O | 102
15 | C=C(C(=O)OC)[C@@H]1CC[C@]2(C)O[C@H]2CC[C@](C)(OO)/C=C/C[C@]2(C)O[C@@H]2C1 | 87.4
16 | C=C1C(=O)O[C@]2(C)CC[C@@H]1C[C@@H]1O[C@@]1(C)CC[C@@H]1O[C@]1(C)CC[C@H]2OC(C)=O | 92.7
17 | C=C(C(=O)OC)[C@@H]1CC[C@@](C)(O)C(=O)CC[C@](C)(O)/C=C/C[C@]2(C)O[C@H]2C1 | 98.1
18 | C=C(C(=O)OC)[C@@H]1CC[C@@](C)(O)[C@@H](OC(C)=O)CC/C(C)=C/CC[C@]2(C)O[C@H]2C1 | 104
19 | C=C1C(=O)O[C@]2(C)CC[C@@H]1C[C@H](O)[C@@]1(C)CC[C@H](O1)C(=C)CC[C@H]2O | 89

System: RAW264.7
Test: Antiinflammatory activity in mouse RAW264.7 cells assessed as inhibition of LPS-induced NO production incubated for 24 hrs
Format: functional, cell-based
Conditions: RAW264.7, 24 h

Row | Compound | IC50 [µM]
20 | C=C1C(=O)O[C@]2(C)CC[C@@H]1C[C@H](O)[C@@]1(C)CC[C@H](OC(C)=O)[C@@](C)(CCC2=O)O1 [QUERCIFORMOLIDE A] | 9.48
21 | C=C1C(=O)O[C@]2(C)CC[C@@H]1C[C@@H]1O[C@@]1(C)CC[C@@H]1O[C@]1(C)CC[C@H]2OC(C)=O | 1.59

System: RAW264.7
Test: Antiinflammatory activity in LPS-induced mouse RAW264.7 cells assessed as reduction in IL-6 mRNA expression level at 20 uM by qRT-PCR analysis
Format: functional, cell-based
Conditions: not given

Row | Compound | Activity
22 | C=C1C(=O)O[C@]2(C)CC[C@@H]1C[C@@H]1O[C@@]1(C)CC[C@@H]1O[C@]1(C)CC[C@H]2OC(C)=O | Active
